# From patent publication US20220002429A1, “TUMOR CELL AGGREGATION INHIBITORS' FOR TREATING CANCER” (Northwestern University, priority 2018, published 2022)
# Residues, ends and D or L forms follow the SMILES beside them. *: point of attachment. Cbz = O=C(OCc1ccccc1)*
# Tests used:
# [1] = system: MDA-MB-231 cells; assay: MDA-MB-231 cell aggregation in suspension on Poly-HEMA-coated plates; type: cell-based, human; settings: 4-MU 0.4 mM/L pre-treatment for 48 h; aggregation at 1 h
# Description: Hyaluronan inhibition. Two complementary approaches were utilized to inhibit hyaluronan, the known CD44 ligand, in the two models. First, for the TN PDX model, dissociated cells were treated with hyaluronan antagonist (o-HA, HA oligomers) at 100 μg/mL during the 72-hour aggregation assays. For MDA-MB-231 cells, the hyaluronic acid synthase inhibitor 4-methylumbelliferone (4-MU, 0.4 mM/L) was added to the adherent culture. After 48 h of treatment, the cells were trypsinized and transferred to a poly-hydroxyethyl methacrylate (Poly-HEMA, Sigma-Aldrich) coated plate, and the images were taken at the indicated times by Leica microscopy.
# Cell clustering assay. Freshly dissociated primary tumor cells in single cell suspension were seeded in collagen type I-coated 96-well plates. The plates were put into the IncuCyte live cell imaging system (Essen BioScience), and live images were taken every 2-4 h for up to one week. The cluster number and size were analyzed by Incucyte ZOOM software (Essen BioScience). In specific experiments, primary tumor cells might be sorted based on the expression of CD44 prior to seeding. In other experiments, seeded tumor cells might be transfected with siRNAs (100 nM) or treated with various inhibitors during the clustering assays. […]
# [2] = system: TN1 PDX tumor cells; assay: ex vivo aggregation (clustering) assay of dissociated PDX tumor cells, IncuCyte time-lapse imaging; type: cell-based, human
# Description: Cell clustering assay. Freshly dissociated primary tumor cells in single cell suspension were seeded in collagen type I-coated 96-well plates. The plates were put into the IncuCyte live cell imaging system (Essen BioScience), and live images were taken every 2-4 h for up to one week. The cluster number and size were analyzed by Incucyte ZOOM software (Essen BioScience). In specific experiments, primary tumor cells might be sorted based on the expression of CD44 prior to seeding. In other experiments, seeded tumor cells might be transfected with siRNAs (100 nM) or treated with various inhibitors during the clustering assays. For cell viability analysis during clustering, the IncuCyte Cytotox Red reagent (Essen BioScience) was added to the medium according to the manufacturer's instructions.
# [3] = system: MDA-MB-231 cells; assay: orthotopic breast tumor model: primary tumor, spontaneous lung metastasis and blood CTC clusters; type: in vivo, mice
# Excerpt: FIG. 21. Inhibition of EGFR blocks spontaneous metastasis. A. Timeline of treatment after palpable tumor formation in PDX model TN1. B. Bioluminescent images of tumor growth before or 1, or 17 days after treatment. C. Primary tumor signal over time, ns. D. Tumor images after 2 weeks of treatment. E. Bioluminescent images of lungs after treatment. F. Measured signal of lungs. p=0.09. G. Timeline of treatment of mice with Erlotinib or vehicle for FIGS. 19H-L. H. Bioluminescence images of orthotopically-implanted breast tumors treated with vehicle or 50 mg/kg Erlotinib (daily orally) for 4 weeks. I. BLI signal (total flux) histograms of the lungs from vehicle and Erlotinib-treated breast tumor bearing mice as shown in H. J. Bioluminescence images of dissected lungs from tumor bearing mice treated with vehicle or Erlotinib in C. K. Fluorescence images of dissected lungs from tumor bearing mice treated with vehicle or Erlotinib in C. L. Representative mix-color tumor cell clusters in blood from tumor bearing mice treated with vehicle or Erlotinib in C.
# Inhibition of EGFR successfully blocks clustering and lung colonization. Using flow cytometry, we found enriched EGFR expression in clustered cells in the blood of breast cancer patients (FIG. 25). […] Furthermore, tdTomato- and eGFP-labeled MDA-MB-231 cells were implanted orthotopically together into the mammary fat pads of mice for examination of tumor cell cluster-mediated polyclonal, spontaneous lung metastasis.
# Mouse models and tumor dissociation. 8-10 weeks old NOD/SCIDmice were used for PDXs and human MDA-MB-231 cell-based xenograft studies. The triple negative PDXs and MDA-MB-231 cells were lentivirally labeled by eGFP, tdTomato, Luc2-eGFP (L2G), or Luc2-tdTomato (L2T) using the lentiviruses and labeling protocol as described previously^3. PDX tumors were harvested and dissociated either with Collagenase III (TN1 model) or Liberase TH and TM research grade (TN2 model and lung tissues). Briefly, tumors were minced and incubated for 2-4 h at 37° C. with Collagenase III (Wortington Biomedical) or Liberase TH and TM (Roche) and 100 Kunitz U of DNase I (Sigma) in 20 mL of RPMI medium with 20 mM Hepes buffer. Single-cell suspensions were filtered through 40-μm nylon cell strainers and washed with Hanks' balanced saline solution (HBSS; Sigma) containing 2% heat-inactivated fetal bovine serum (FBS). Red blood cells were lysed with ACK lysis buffer, and dissociated bulk tumor cells were either cultured or stained with various antibodies in HBSS/2% FBS for further flow analysis or sorting on a BD FacsAria (BD Biosciences). […]
# Bioluminescence imaging. […] Signals are presented as total photon flux and analyzed using Living Image 3.0 software (Caliper Life Sciences).
# [4] = system: phospho-EGFR (Y845); assay: immunoblot of phospho-EGFR (Y845) in siCD44-transfected MDA-MB-231 cells; type: cell-based, human; settings: siCD44 MDA-MB-231 cells in suspension, inhibitor for 6 hours
# Description: FIG. 23. CD44 promotes EGFR stability and activity in clusters. A. Immunoblots of phospho-EGFR (Y845), EGFR and actin of TN1-PDX tumor cells in clustering assays upon CD44 knockdown for 36 hours. B. Real-time PCR showing no significant (NS) effect of siCD44 on EGFR mRNA levels. Immunoblots of phospho-EGFR (Y845) and total EGFR of MDA-MB-231 cells in suspension for 48 hours after transfected with scramble control (con), siCD44, or siEGFR. D. Immunoblots of phospho-EGFR (Y845) in MDA-MB-231 cells, transfected with siCD44, either adherent (adh) or in suspension in the presence of proteasome inhibitor (MG-132) or endocytosis inhibitor (sucrose) for 6 hours. E. Immunoprecipitation of CD44-FLAG and detection of EGFR by immunoblot.
# Western blot. Cells were lysed by RIPA buffer supplemented with Amresco protease inhibitor cocktail (1:100 diluted) and centrifuged for 10 mins at 4 degrees and 10,000 RPM. Protein concentration was measured and 20 ug of protein was loaded for each sample. Antibodies used: EGFR, p-EGFR, b-actin (abcam).
# [5] = Erlotinib 50 mg/kg daily orally for 4 weeks
smiles,measurement,setting,value
"Cc1cc(=O)oc2cc(O)ccc12 [4-MU, 4-methylumbelliferone]",aggregation of MDA-MB-231 cells in suspension,[1],did not significantly alter the aggregation
C#Cc1cccc(Nc2ncnc3cc(OCCOC)c(OCCOC)cc23)c1 [Erlotinib],"PDX-derived tumor cell cluster formation, counts and size","[2]; incubation with Erlotinib (1-10 μM), 72 hours","dramatically reduced PDX-derived tumor cell cluster formation, both the counts and size"
same,primary tumor formation,[3]; [5],no effects on primary tumor formation
same,spontaneous lung metastasis,[3]; [5],significantly and dramatically reduced the spontaneous lung metastasis
same,CTC clusters in dual colors in the blood,[3]; Erlotinib vs vehicle,only detectable in the blood collected from the vehicle-treated mice
same,dual color metastasis colonies in the lungs,[3]; Erlotinib vs vehicle,absent but with reduced single-colored colonies
CCn1c(=O)c(-c2ccc(-c3cncs3)cc2Cl)cc2cnc(Nc3ccc(N4CCN(C)CC4)cc3)nc21 [FRAX597],ex vivo aggregation of TN1 PDX tumor cells (cluster size and number),[2]; FRAX597 500 nM for 72 hours,partially blocked the ex vivo aggregation
CC(C)C[C@@H](C=O)NC(=O)[C@H](CC(C)C)NC(=O)[C@H](CC(C)C)NC(=O)OCc1ccccc1 [MG-132] (Cbz-Leu-Leu-Leu-aldehyde),p-EGFR levels reduced by CD44 knockdown,[4],rescued
OC[C@H]1O[C@@](CO)(O[C@H]2O[C@H](CO)[C@@H](O)[C@H](O)[C@H]2O)[C@@H](O)[C@@H]1O [sucrose],p-EGFR levels reduced by CD44 knockdown,[4],rescued
